Laboratory results: the supplement of paper PMC11451515

Test system: SEM cells
Assay: cell viability relative to DMSO control; higher = less cytotoxic
Conditions: 48 h
Procedure, shortened: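 Before seeding, each leukemia line was adapted for at least four passages in each medium. NOMO1 or SEM cells (500 cells/well) and P12-Ichikawa cells (1000 cells/well) went into 1536-well plates at 5 μl, then received library compounds in DMSO by pin dosing across 11 threefold concentrations, 47 μM to 0.79 nM. Readout was CellTiter-Glo One luminescence after 48 h at 37°C, and viability is given as a per-plate percentage of DMSO wells, with cell-free wells as background.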

[1] = HPLM + 10% dialyzed FBS, 0.000781 µM
[2] = HPLM + 10% dialyzed FBS, 0.00234 µM
[3] = HPLM + 10% dialyzed FBS, 0.00702 µM
[4] = HPLM + 10% dialyzed FBS, 0.0211 µM
[5] = HPLM + 10% dialyzed FBS, 0.0632 µM
[6] = HPLM + 10% dialyzed FBS, 0.19 µM
[7] = HPLM + 10% dialyzed FBS, 0.569 µM
[8] = HPLM + 10% dialyzed FBS, 1.71 µM
[9] = HPLM + 10% dialyzed FBS, 5.12 µM
[10] = HPLM + 10% dialyzed FBS, 15.4 µM
[11] = HPLM + 10% dialyzed FBS, 46.1 µM
[12] = RPMI 5 mM glucose + 10% FBS, 0.000781 µM
[13] = RPMI 5 mM glucose + 10% FBS, 0.00234 µM
[14] = RPMI 5 mM glucose + 10% FBS, 0.00702 µM
[15] = RPMI 5 mM glucose + 10% FBS, 0.0211 µM
[16] = RPMI 5 mM glucose + 10% FBS, 0.0632 µM
[17] = RPMI 5 mM glucose + 10% FBS, 0.19 µM
[18] = RPMI 5 mM glucose + 10% FBS, 0.569 µM
[19] = RPMI 5 mM glucose + 10% FBS, 1.71 µM
[20] = RPMI 5 mM glucose + 10% FBS, 5.12 µM
[21] = RPMI 5 mM glucose + 10% FBS, 15.4 µM
[22] = RPMI 5 mM glucose + 10% FBS, 46.1 µM
[23] = RPMI 5 mM glucose + 10% dialyzed FBS, 0.000781 µM
[24] = RPMI 5 mM glucose + 10% dialyzed FBS, 0.00234 µM
[25] = RPMI 5 mM glucose + 10% dialyzed FBS, 0.00702 µM
[26] = RPMI 5 mM glucose + 10% dialyzed FBS, 0.0211 µM
[27] = RPMI 5 mM glucose + 10% dialyzed FBS, 0.0632 µM
[28] = RPMI 5 mM glucose + 10% dialyzed FBS, 0.19 µM
[29] = RPMI 5 mM glucose + 10% dialyzed FBS, 0.569 µM
[30] = RPMI 5 mM glucose + 10% dialyzed FBS, 1.71 µM
[31] = RPMI 5 mM glucose + 10% dialyzed FBS, 5.12 µM
[32] = RPMI 5 mM glucose + 10% dialyzed FBS, 15.4 µM
[33] = RPMI 5 mM glucose + 10% dialyzed FBS, 46.1 µM

In the case of `CNC[C@H](O)c1ccc(O)c(O)c1`, the cell viability [1] is reported as 90.5%, the cell viability [2] is reported as 85.8% and the cell viability [3] is reported as 71.9%. For the same compound, the cell viability [4] was 73.9%, the cell viability [5] was 77.3% and the cell viability [6] was 17.6%. For the same compound, the cell viability [7] was 63%, the cell viability [8] was 68.7% and the cell viability [9] was 61.3%. The cell viability [10] was 70.5%, the cell viability [11] was 53.1% and the cell viability [12] was 104%. For the same compound, the cell viability [13] was 97.3%, the cell viability [14] was 85.6% and the cell viability [15] was 73.1%. It also gave a cell viability [16] of 102%, a cell viability [17] of 30.8% and a cell viability [18] of 87.9%. For the same compound, the cell viability [19] was 83.7%, the cell viability [20] was 79.8% and the cell viability [21] was 90.7%. The cell viability [22] was 82.4%, the cell viability [23] was 104% and the cell viability [24] was 111%. For the same compound, the cell viability [25] was 85.8%, the cell viability [26] was 83.3% and the cell viability [27] was 93.3%. It also gave a cell viability [28] of 28.2%, a cell viability [29] of 86.5% and a cell viability [30] of 95.3%. It also gave a cell viability [31] of 89.5%, a cell viability [32] of 82.1% and a cell viability [33] of 68.9%.

`C[C@@H]\1CC(=O)N\N=C1C2=CC=C(NN=C(C#N)C#N)C=C2` was tested, and the cell viability [1] was 88.9%, the cell viability [2] was 86.8% and the cell viability [3] was 101%. The cell viability [4] was 87.4%, the cell viability [5] was 98.4% and the cell viability [6] was 96.5%. For the same compound, the cell viability [7] was 55.4%, the cell viability [8] was 92.3% and the cell viability [9] was 106%. For the same compound, the cell viability [10] was 62.8%, the cell viability [11] was 4.93% and the cell viability [12] was 68.2%. The cell viability [13] was 92.4%, the cell viability [14] was 107% and the cell viability [15] was 92.6%. The cell viability [16] was 88.4%, the cell viability [17] was 102% and the cell viability [18] was 39.3%. The cell viability [19] was 90.9%, the cell viability [20] was 95.2% and the cell viability [21] was 35.3%. For the same compound, the cell viability [22] was 5%, the cell viability [23] was 73.5% and the cell viability [24] was 88.4%. It also gave a cell viability [25] of 91.4%, a cell viability [26] of 93.1% and a cell viability [27] of 95.2%. For the same compound, the cell viability [28] was 92.5%, the cell viability [29] was 72.8% and the cell viability [30] was 100%. The cell viability [31] was 107%, the cell viability [32] was 53.2% and the cell viability [33] was 6.27%.

`CCC(C)(C)c1ccc(CC(C)CN2C[C@@H](C)O[C@@H](C)C2)cc1` (some centres not stated) was tested, and the cell viability [1] was 69%, the cell viability [2] was 62.1% and the cell viability [3] was 88.1%. For the same compound, the cell viability [4] was 87.3%, the cell viability [5] was 72.2% and the cell viability [6] was 64.7%. It also gave a cell viability [7] of 74.7%, a cell viability [8] of 75.5% and a cell viability [9] of 84.1%. It also gave a cell viability [10] of 67.8%, a cell viability [11] of 74.3% and a cell viability [12] of 80%. The cell viability [13] was 67.6%, the cell viability [14] was 87.1% and the cell viability [15] was 79.9%. It also gave a cell viability [16] of 89.4%, a cell viability [17] of 36.3% and a cell viability [18] of 91.8%. The cell viability [19] was 86.6%, the cell viability [20] was 84.5% and the cell viability [21] was 71.9%. It also gave a cell viability [22] of 76.8%, a cell viability [23] of 71% and a cell viability [24] of 67.1%. The cell viability [25] was 94.5%, the cell viability [26] was 91.7% and the cell viability [27] was 83.4%. For the same compound, the cell viability [28] was 78.6%, the cell viability [29] was 114% and the cell viability [30] was 82.9%. It also gave a cell viability [31] of 89.7%, a cell viability [32] of 67.9% and a cell viability [33] of 78%.

Compound `CCN1\C=C(\C(O)=O)C(=O)C2=CC=C(C)N=C12` has a cell viability [1] of 72.7%, a cell viability [2] of 70.2% and a cell viability [3] of 82.7%. It also gave a cell viability [4] of 87.4%, a cell viability [5] of 99% and a cell viability [6] of 97.5%. It also gave a cell viability [7] of 92%, a cell viability [8] of 94.8% and a cell viability [9] of 96.4%. The cell viability [10] was 19.8%, the cell viability [11] was 97.3% and the cell viability [12] was 86%. It also gave a cell viability [13] of 93.3%, a cell viability [14] of 102% and a cell viability [15] of 97.1%. For the same compound, the cell viability [16] was 93%, the cell viability [17] was 108% and the cell viability [18] was 90.9%. For the same compound, the cell viability [19] was 98.9%, the cell viability [20] was 103% and the cell viability [21] was 13.6%. The cell viability [22] was 76.5%, the cell viability [23] was 86.9% and the cell viability [24] was 82.3%. The cell viability [25] was 103%, the cell viability [26] was 97.9% and the cell viability [27] was 86.3%. The cell viability [28] was 111%, the cell viability [29] was 103% and the cell viability [30] was 96.6%. For the same compound, the cell viability [31] was 66%, the cell viability [32] was 21.3% and the cell viability [33] was 78.5%.
